We go through 21 compounds from patent US9353104B2, “Substituted pyridizinone derivatives as PDE10 inhibitors” (priority 2013, dated 2016).

Chain of human PDE10A2 (Q9Y233 267-1055): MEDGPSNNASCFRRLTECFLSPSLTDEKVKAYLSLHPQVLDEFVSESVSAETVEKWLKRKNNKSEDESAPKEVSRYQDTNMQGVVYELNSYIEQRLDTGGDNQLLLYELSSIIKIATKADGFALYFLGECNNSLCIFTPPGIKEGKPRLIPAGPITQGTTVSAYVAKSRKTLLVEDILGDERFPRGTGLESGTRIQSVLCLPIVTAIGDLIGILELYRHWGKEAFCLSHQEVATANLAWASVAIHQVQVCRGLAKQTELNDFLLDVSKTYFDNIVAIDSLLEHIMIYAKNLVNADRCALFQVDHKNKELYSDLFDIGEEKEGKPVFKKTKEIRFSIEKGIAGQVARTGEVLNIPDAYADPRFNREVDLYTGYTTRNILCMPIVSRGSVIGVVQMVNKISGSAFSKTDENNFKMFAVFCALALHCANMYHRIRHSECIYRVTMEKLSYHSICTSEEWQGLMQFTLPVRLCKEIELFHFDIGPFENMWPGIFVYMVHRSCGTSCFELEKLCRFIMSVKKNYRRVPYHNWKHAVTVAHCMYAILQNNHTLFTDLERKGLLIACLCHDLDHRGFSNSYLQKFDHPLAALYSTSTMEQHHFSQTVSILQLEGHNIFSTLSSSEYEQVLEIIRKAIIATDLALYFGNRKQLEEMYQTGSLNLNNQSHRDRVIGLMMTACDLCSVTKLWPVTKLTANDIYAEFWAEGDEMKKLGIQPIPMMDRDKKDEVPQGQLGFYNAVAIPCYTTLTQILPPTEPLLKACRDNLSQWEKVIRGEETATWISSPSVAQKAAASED

The target in the assay is human PDE10A2 (Homo sapiens (Human), UniProt Q9Y233). Nature of the assay: PDE10 fluorescence polarization (IMAP FP) inhibition assay. In kind it is biochemical. The note with it: human PDE10A2 lysate, FAM-labeled cAMP 50 nM, room temperature; read-out: PDE10A Ki. The protocol:
The activity of the compounds in accordance with the present invention as PDE10 inhibitors may be readily determined without undue experimentation using a fluorescence polarization (FP) methodology that is well known in the art (Huang, W., et al., J. Biomol Screen, 2002, 7: 215). […] In a typical experiment the PDE10 inhibitory activity of the compounds of the present invention was determined in accordance with the following experimental method. PDE10A2 was amplified from human fetal brain cDNA (Clontech, Mountain View, Calif.) using a forward primer corresponding to nucleotides 56-77 of human PDE10A2 (Accession No. AF127480, Genbank Identifier 4894716), containing a Kozak consensus sequence, and a reverse primer corresponding to nucleotides 2406-2413 of human PDE10A2 (Accession No. AF127480, Genbank Identifier 4894716). Amplification with Easy-A polymerase (Stratagene, La Jolla, Calif.) was 95° C. for 2 minutes followed by thirty three cycles of 95° C. for 40 seconds, 55° C. for 30 seconds, and 72° C. for 2 minutes 48 seconds. Final extension was 72° C. for 7 minutes. The PCR product was TA cloned into pcDNA3.2-TOPO (Invitrogen, Carlsbad, Calif.) according to standard protocol. AD293 cells with 70-80% confluency were transiently transfected with human PDE10A2/pcDNA3.2-TOPO using Lipofectamine 2000 according to manufacturer specifications (Invitrogen, Carlsbad, Calif.). Cells were harvested 48 hours post-transfection and lysed by sonication (setting 3, 10×5 sec pulses) in a buffer containing 20 mM HEPES, 1 mM EDTA and protease inhibitor cocktail (Roche). Lysate was collected by centrifugation at 75,000×g for 20 minutes. Supernatant containing the cytoplasmic fraction was used for evaluation of PDE10A2 activity. The fluorescence polarization assay for cyclic nucleotide phosphodiesterases was performed using an IMAP® FP kit supplied by Molecular Devices, Sunnyvale, Calif. (product #R8139). IMAP® technology has been applied previously to phosphodiesterase assays (Huang, W., et al., J. Biomol Screen, 2002, 7: 215). Assays were performed at room temperature in 384-well microtiter plates with an incubation volume of 20.2 μL. Solutions of test compounds were prepared in DMSO and serially diluted with DMSO to yield 8 μL of each of 10 solutions differing by 3-fold in concentration, at 32 serial dilutions per plate. 100% inhibition is determined using a known PDE10 inhibitor, which can be any compound that is present at 5,000 times its Ki value in the assay described as follows, such as papaverine (see Siuciak, et al. Neuropharmacology (2006) 51:386-396; Becker, et al. Behav Brain Res (2008) 186(2):155-60; Threlfell, et al., J Pharmacol Exp Ther (2009) 328(3):785-795), 2-{4-[pyridin-4-yl-1-(2,2,2-trifluoroethyl)-1H-pyrazol-3-yl]phenoxymethyl}quinoline succinic acid or 2-[4-(1-methyl-4-pyridin-4-yl-1H-pyrazol-3-yl)-phenoxymethyl]quinoline succinic acid (see Schmidt, et al. J Pharmacol Exp Ther (2008) 325:681-690; Threlfell, et al., J Pharmacol Exp Ther (2009) 328(3): 785-795). 0% of inhibition is determined by using DMSO (1% final concentrations).
A Labcyte Echo 555 (Labcyte, Sunnyvale, Calif.) is used to dispense 200 nL from each well of the titration plate to the 384 well assay plate. A solution of enzyme (1/1600 dilution from aliquots; sufficient to produce 20% substrate conversion) and a separate solution of FAM-labeled cAMP PDE from Molecular Devices (product #R7506), at a final concentration of 50 nM are made in the assay buffer (10 mM Tris HCl, pH 7.2, 10 mM MgCl2, 0.05% NaN3 0.01% Tween-20, and 1 mM DTT). The enzyme and the substrate are then added to the assay plates in two consecutive additions of 10 μL, and then shaken to mix. The reaction is allowed to proceed at room temperature for 30 minutes. A binding solution is then made from the kit components, comprised of 80% Solution A, 20% Solution B and binding reagent at a volume of 1/600 the total binding solution.
Consider `Cc1nnc(CNc2cc(OC[C@H]3C[C@@H]3c3ccc(Cl)cn3)nn(C)c2=O)s1` [Example 25, 6-(((1S,2S)-2-(5-chloropyridin-2-yl)cyclopropyl)methoxy)-2-methyl-4-((5-methyl-1,3,4-thiadiazol-2-yl)methylamino)pyridazin-3(2H)-one], for which the Ki was found to be 0.0819 nM.

As to `Cc1cccc([C@H]2C[C@@H]2COc2cc(NCc3ccccn3)c(=O)n(C)n2)n1` [Example 119, 2-methyl-6-(((1S,2S)-2-(6-methylpyridin-2-yl)cyclo-propyl)methoxy)-4-(pyridin-2-ylmethylamino-)pyridazin-3(2H)-one], the Ki was 3.4 nM.

On to `COc1ccc([C@H]2C[C@@H]2COc2cc(NCCc3nccs3)c(=O)n(C)n2)nc1` [Example 136, 6-(((1S,2S)-2-(5-methoxy-pyridin-2-yl)cyclopropyl-)methoxy)-2-methyl-4-(2-(thiazol-2-yl)ethylamino-)pyridazin-3(2H)-one], for which the Ki came to 10.3 nM.

`Cc1ccc([C@H]2C[C@@H]2COc2cc(NCc3ncc(C)s3)c(=O)n(C)n2)nc1` [Example 31, 2-methyl-6-(((1S,2S)-2-(5-methylpyridin-2-yl)cyclopropyl)methoxy)-4-((5-methylthiazol-2-yl)methylamino)pyridazin-3(2H)-one]: the Ki amounted to 0.007 nM.

`Cc1ncc(CNc2cc(OC[C@H]3C[C@@H]3c3ccc(F)cn3)nn(C)c2=O)s1` [Example 22, 6-(((1S,2S)-2-(5-fluoropyridin-2-yl)cyclopropyl)methoxy)-2-methyl-4-((2-methylthiazol-5-yl)methylamino)pyridazin-3(2H)-one]: the Ki was 0.175 nM.

On to `COc1ccc(Cn2cc(CNc3cc(OC[C@H]4C[C@@H]4c4ccc(OC)cn4)nn(C)c3=O)c(C)n2)cc1` [Example 77, 4-((1-(4-methoxybenzyl)-3-methyl-1H-pyrazol-4-yl)methylamino)-6-(((1S,2S)-2-(5-methoxy-pyridin-2-yl)cyclopropyl)-methoxy)-2-methyl-pyridazin-3(2H)-one], for which the Ki was found to be 5.7 nM.

Regarding `Cc1ccc([C@H]2C[C@@H]2COc2cc(NCc3nc(C)c(C)s3)c(=O)n(C)n2)nc1` [Example 127, 4-((4,5-dimethylthiazol-2-yl)methylamino)-2-methyl-6-(((1S,2S)-2-(5-methyl-pyridin-2-yl)cyclopropyl- )methoxy)pyridazin-3(2H)-one], the Ki is 0.045 nM.

For `CCn1nc(OC[C@H]2C[C@@H]2c2ccc(OC)cn2)cc(NCc2nnc(C)s2)c1=O` [Example 144, 2-ethyl-6-(((1S,2S)-2-(5-methoxypyridin-2-yl)cyclopropyl)methoxy)-4-((5-methyl-1,3,4-thiadiazol-2-yl)methylamino)pyridazin-3(2H)-one], the Ki amounted to 0.032 nM.

Turning to `Cn1cc(CNc2cc(OC[C@H]3C[C@@H]3c3ccc(Cl)cn3)nn(C)c2=O)cn1` [Example 27, 6-(((1S,2S)-2-(5-chloro-pyridin-2-yl)cyclopropyl)-methoxy)-2-methyl-4-((1-methyl-1H-pyrazol-4-yl)methylamino)pyridazin-3(2H)-one], the Ki was found to be 0.34 nM.

For the compound `Cc1cccc([C@H]2C[C@@H]2COc2cc(NCc3cccnc3)c(=O)n(C)n2)n1` [Example 120, 2-methyl-6-(((1S,2S)-2-(6-methylpyridin-2-yl)cyclo-propyl)methoxy)-4-(pyridin-3-ylmethylamino-)pyridazin-3(2H)-one], the Ki was found to be 1.3 nM.

As for `COc1ccc([C@H]2C[C@@H]2COc2cc(NCc3nc(C)nn3C)c(=O)n(C)n2)nc1` [Example 88, 4-(((1,3-dimethyl-1H-1,2,4-triazol-5-yl)methyl)amino)-6-(((1S,2S)-2-(5-methoxypyridin-2-yl)cyclopropyl)methoxy)-2-methylpyridazin-3(2H)-one], the Ki was 2.8 nM.

For the compound `COc1ccc([C@H]2C[C@@H]2COc2nn(C)c(=O)c(NCc3nnc(C)s3)c2Br)nc1` [Example 140, 5-bromo-6-(((1S,2S)-2-(5-methoxypyridin-2-yl)cyclopropyl)methoxy)-2-methyl-4-((5-methyl-1,3,4-thiadiazol-2-yl)methyl-amino)pyridazin-3(2H)-one], the Ki was 0.004 nM.

As to `COc1ccc([C@H]2C[C@@H]2COc2cc(NCc3nc(C)ccc3F)c(=O)n(C)n2)nc1` [Example 70, 4-(((3-fluoro-6-methyl-pyridin-2-yl)methyl)-amino)-6-(((1S,2S)-2-(5-methoxypyridin-2-yl)-cyclopropyl)methoxy)-2-methylpyridazin-3(2H)one], the Ki is 55.1 nM.

In the case of `COc1ccc([C@H]2C[C@@H]2COc2cc(NCc3cn(C)nn3)c(=O)n(C)n2)nc1` [Example 147, 6-(((1S,2S)-2-(5-methoxy-pyridin-2-yl)-cyclopropyl-)methoxy)-2-methyl-4-((1-methyl-1H-1,2,3-triazol-4-yl)methylamino)pyridazin-3(2H)-one], the Ki amounted to 0.066 nM.

Consider `Cn1cc(CNc2cc(OC[C@H]3C[C@@H]3c3ccn(C)n3)nn(C)c2=O)cn1` [Example 23, 2-methyl-6-(((1S,2S)-2-(1-methyl-1H-pyrazol-3-yl)cyclopropyl)methoxy)-4-((1-methyl-1H-pyrazol-4-yl)methylamino)-pyridazin-3(2H)-one], for which the Ki stood at 0.478 nM.

As to `Cc1ccc([C@H]2C[C@@H]2COc2cc(NCc3cc(C)nn3C)c(=O)n(C)n2)nc1` [Example 14, 4-((1,3-dimethyl-1H-pyrazol-5-yl)methylamino-)-2-methyl-6-(((1S,2S)-2-(5-methylpyridin-2-yl)cyclopropyl)methoxy)-pyridazin-3(2H)-one], the Ki was 0.003 nM.

For `Cc1ccc([C@H]2C[C@@H]2COc2cc(NCc3cnn4ccccc34)c(=O)n(C)n2)nc1` [Example 79, 2-methyl-6-(((1S,2S)-2-(5-methylpyridin-2-yl)cyclopropyl)methoxy)-4-((pyrazolo[1,5-a]pyridin-3-ylmethyl)amino)-pyridazin-3(2H)-one], the Ki was determined as 1.1 nM.

As to `COc1ccc([C@H]2C[C@@H]2COc2cc(NCc3ccnc(C)c3)c(=O)n(C)n2)nc1` [Example 62, 6-(((1S,2S)-2-(5-methoxy-pyridin-2-yl)cyclopropyl-)-methoxy)-2-methyl-4-(((2-methylpyridin-4-yl)methyl)amino)pyridazin-3(2H)-one], the Ki was found to be 0.122 nM.

`Cc1cccc([C@H]2C[C@@H]2COc2cc(NCc3ncc(C)s3)c(=O)n(C)n2)n1` [Example 118, 2-methyl-6-(((1S,2S)-2-(6-methylpyridin-2-yl)cyclo-propyl)methoxy)-4-((5-methylthiazol-2-yl)methyl-amino)pyridazin-3(2H)one]: the Ki is 0.037 nM.

`Cc1ccc(CNc2cc(OC[C@H]3C[C@@H]3c3ccc(OC(F)F)cn3)nn(C)c2=O)c(C)n1` [Example 58, 6-(((1S,2S)-2-(5-(difluoromethoxy)pyridin-2-yl)cyclopropyl)-methoxy)-4-(((2,6-di-methylpyridin-3-yl)-methyl)amino)-2-methyl-pyridazin-3(2H)-one]: the Ki was 0.028 nM.

Take `COc1ccc([C@H]2C[C@@H]2COc2cc(NCc3cnn(C)c3N(C)C)c(=O)n(C)n2)nc1` [Example 83, 4-(((5-(dimethylamino)-1-methyl-1H-pyrazol-4-yl)methyl)amino)-6-(((1S,2S)-2-(5-methoxypyridin-2-yl)cyclopropyl)methoxy)-2-methylpyridazin-3(2H)-one]: the Ki turned out to be 42.6 nM.
